The target of assay [1] is T1, human GLP1 receptor (Homo sapiens, UniProt P43220).
T1 construct: expressed in transfected cells; host or cells: HEK cells, BacMam virus transduction
Kind of assay: cAMP accumulation assay (HTRF), functional agonism of human GLP1 receptor in HEK cells. It counts as cell-based. Conditions: HEK cells, human GLP1 receptor BacMam, 45 min 37° C.; for Emax: HEK293, read-out: Human GLP-1R agonist cAMP Emax; for EC50: read-out: Human GLP-1R agonist cAMP pEC50 (converted). Background: Changes in cAMP serve as a functional read-out for many G protein-coupled receptors.
Procedure: (§1) The functional activity of the peptides were assessed using a HTRF cAMP assay. pEC50 values are quoted.
(§2) cAMP production upon agonist stimulation of human GLP2 or GLP1 receptor was assessed utilizing HiRange cAMP kit (Cisbio). In brief, HEK cells were infected with either human GLP2 or GLP1 receptor BacMam virus for 24 hours and frozen for later use in the assay. […] Cells were prepared in the assay buffer (HBSS (Lonza) supplemented with 0.5 mM IBMX (Tocris)). After 45 min incubation at 37° C., the reaction was stopped by addition of the HTRF detection reagents in the lysis buffer provided in the kit.

For assay [2], the target named is T2, mouse GLP1 receptor (Mus musculus, UniProt O35659).
T2 construct: expressed in transfected cells; host or cells: HEK cells, transient transfection with GeneJuice
T2 sequence (O35659 22-463): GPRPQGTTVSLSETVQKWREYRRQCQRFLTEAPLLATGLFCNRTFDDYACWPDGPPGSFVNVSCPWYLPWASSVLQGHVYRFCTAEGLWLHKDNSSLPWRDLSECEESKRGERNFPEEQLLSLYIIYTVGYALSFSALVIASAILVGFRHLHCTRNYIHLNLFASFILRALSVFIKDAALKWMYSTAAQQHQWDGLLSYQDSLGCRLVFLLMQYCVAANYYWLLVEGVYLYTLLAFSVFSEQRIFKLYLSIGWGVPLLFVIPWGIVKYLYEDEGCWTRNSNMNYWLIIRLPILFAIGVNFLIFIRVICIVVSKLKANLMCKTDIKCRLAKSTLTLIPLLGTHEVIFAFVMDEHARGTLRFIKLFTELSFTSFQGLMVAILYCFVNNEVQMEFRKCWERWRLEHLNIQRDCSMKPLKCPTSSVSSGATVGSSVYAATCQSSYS
Kind of assay: cAMP accumulation assay (HTRF), functional agonism of mouse GLP1 receptor in HEK cells. The following applies: HEK cells transiently transfected, 45 min 37° C.; for Emax: HEK293, read-out: Mouse GLP-1 R agonist cAMP Emax; for EC50: read-out: Mouse GLP-1 R agonist cAMP pEC50 (converted). It counts as cell-based.

Assay [3] concerns the target T3, human GLP2 receptor (Homo sapiens, UniProt O95838).
T3 sequence (O95838 1-553): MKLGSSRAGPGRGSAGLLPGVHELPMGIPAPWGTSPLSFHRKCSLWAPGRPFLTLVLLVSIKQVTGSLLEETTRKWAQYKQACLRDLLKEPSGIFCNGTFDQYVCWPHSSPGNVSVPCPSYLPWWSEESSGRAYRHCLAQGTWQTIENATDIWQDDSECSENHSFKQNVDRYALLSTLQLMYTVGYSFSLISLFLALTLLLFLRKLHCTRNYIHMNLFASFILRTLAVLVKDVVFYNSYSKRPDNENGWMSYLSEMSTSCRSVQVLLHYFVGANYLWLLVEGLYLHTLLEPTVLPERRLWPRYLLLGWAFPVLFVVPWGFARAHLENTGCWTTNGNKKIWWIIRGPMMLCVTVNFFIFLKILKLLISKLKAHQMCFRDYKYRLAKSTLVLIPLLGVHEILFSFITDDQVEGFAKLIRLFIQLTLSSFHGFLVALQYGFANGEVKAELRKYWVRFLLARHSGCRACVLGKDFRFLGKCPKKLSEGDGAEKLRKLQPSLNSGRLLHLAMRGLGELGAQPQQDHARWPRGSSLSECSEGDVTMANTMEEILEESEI
Nature of the assay: cAMP accumulation assay (HTRF), functional agonism of human GLP2 receptor in HEK cells.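 For all read-outs here: HEK cells transduced via BacMam to express human GLP2 receptor, agonist-stimulated cAMP measured by HTRF after 45 min at 37 °C in HBSS with 0.5 mM IBMX.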 The following applies: for Emax: HEK293, read-out: Human GLP-2R agonist cAMP Emax.
Procedure: as §1, §2

Assay [4] deals with T4, mouse GLP2 receptor (Mus musculus, UniProt Q5IXF8).
T4 construct: expressed in transfected cells; host or cells: HEK cells, transient transfection with GeneJuice
T4 sequence (Q5IXF8 1-512): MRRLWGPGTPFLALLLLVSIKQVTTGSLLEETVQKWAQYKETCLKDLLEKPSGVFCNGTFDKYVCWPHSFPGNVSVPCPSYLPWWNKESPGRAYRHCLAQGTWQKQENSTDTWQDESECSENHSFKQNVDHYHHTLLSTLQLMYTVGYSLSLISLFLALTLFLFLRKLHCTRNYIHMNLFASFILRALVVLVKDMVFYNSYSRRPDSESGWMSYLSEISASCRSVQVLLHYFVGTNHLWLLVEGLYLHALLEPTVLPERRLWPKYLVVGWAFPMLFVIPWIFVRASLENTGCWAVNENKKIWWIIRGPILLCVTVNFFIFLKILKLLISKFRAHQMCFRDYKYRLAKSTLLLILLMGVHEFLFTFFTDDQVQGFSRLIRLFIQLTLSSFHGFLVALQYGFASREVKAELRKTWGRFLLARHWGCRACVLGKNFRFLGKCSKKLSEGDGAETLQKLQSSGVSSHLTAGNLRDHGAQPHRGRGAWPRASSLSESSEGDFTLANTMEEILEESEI
Nature of the assay: cAMP accumulation assay (HTRF), functional agonism of mouse GLP2 receptor in HEK cells. It counts as cell-based. The following applies: HEK cells transiently transfected, 45 min 37° C.; for Emax: HEK293, read-out: Mouse GLP-2R agonist cAMP Emax; for EC50: read-out: Mouse GLP-2R agonist cAMP pEC50 (converted).

The test system of assay [5] is C57BL/6J male mice. Kind of assay: Effect on intestinal wet weight in normal mice (FIG. 1). It counts as in vivo, mouse. Conditions: once daily sc 270 nmol/kg (liraglutide iv 200 ug/kg), sacrificed on day 3, vs. vehicle. On the procedure: Mice were sacrificed on day 3 and the wet weight of the small intestine was quantified. GLP-2 active peptides show significant enhancement of the small intestinal weight. […] N=6 animals / grp. *p < 0.05 vs. vehicle
C57BL/6J male mice (Charles River, Italy, ~8 weeks) are randomly allocated to the treatment group based on the baseline body weights. Animals are given free access to food and water during the whole duration of the study. Mice are dosed daily with the test compounds via subcutaneous injection. […] The abdominal cavity will be opened and the intestinal tissue is excised carefully to avoid perforation. Tissue from the upper small intestine (15 cm segment from the pylorus) is collected. The bowel is cleaned by flushing through with ice cold PBS to remove any feces.

Assay [6] concerns C57BL/6J male mice. Kind of assay: Dose response effect on intestinal mass in normal mice, 7 day dosing (FIG. 2). The following applies: daily sc. It counts as in vivo, mouse. On the procedure:
The enhancement of the small bowel wet weight (over vehicle) is plotted as a function of the peptide dose. […] N=6 animals I grp.
C57BL/6J male mice (Charles River, Italy, ~8 weeks) are randomly allocated to the treatment group based on the baseline body weights. Animals are given free access to food and water during the whole duration of the study. Mice are dosed daily with the vehicle or test peptides via subcutaneous injection. On day 7, animals are sacrificed and segments from the upper small intestine (15 cm segment from the pylorus) are collected and weighed (see Example B).

Non-standard residues stand in square brackets, D forms with d. Residues, ends and D or L forms follow the SMILES beside them. ξ: configuration not given here. *: point of attachment. Malonyl(2,2-Me2,histaminyl) = CC(C)(C(=O)NCCc1cnc[nH]1)C(=O)*; Ala(1H-tetrazol-5-yl) = N[C@@H](Cc1nnn[nH]1)C(=O)O; ξαMeD = CC(N)(CC(=O)O)C(=O)O; Nle = CCCC[C@H](N)C(=O)O; Aib = CC(C)(N)C(=O)O; Alloc = C=CCOC(=O)*

T1 sequence (P43220 24-463): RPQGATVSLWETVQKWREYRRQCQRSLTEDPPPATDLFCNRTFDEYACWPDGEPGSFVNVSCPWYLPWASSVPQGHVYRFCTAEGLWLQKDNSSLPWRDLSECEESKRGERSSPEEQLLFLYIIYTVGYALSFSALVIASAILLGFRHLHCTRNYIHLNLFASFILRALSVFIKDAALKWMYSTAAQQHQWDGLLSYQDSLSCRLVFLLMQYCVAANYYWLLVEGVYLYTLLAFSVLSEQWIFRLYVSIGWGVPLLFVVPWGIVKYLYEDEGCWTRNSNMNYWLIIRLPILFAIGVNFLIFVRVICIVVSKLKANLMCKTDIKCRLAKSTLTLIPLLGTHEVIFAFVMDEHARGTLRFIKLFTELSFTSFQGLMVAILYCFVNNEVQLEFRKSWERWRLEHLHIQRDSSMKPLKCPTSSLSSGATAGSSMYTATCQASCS

Usually Emax stands for the maximal effect, on the per cent scale that the assay sets. On to `C=CCOC(=O)NCCCC[C@H](NC(=O)[C@H](CC(C)C)NC(=O)[C@H](CC(=O)O)NC(=O)[C@H](CC(C)C)NC(=O)C(C)(C)NC(=O)[C@@H](NC(=O)[C@@H](Cc1ccccc1)NC(=O)[C@H](CCCC)NC(=O)[C@H](CCC(=O)O)NC(=O)[C@H](CC(=O)O)NC(=O)[C@H](CO)NC(=O)[C@H](Cc1ccccc1)NC(=O)[C@H](CO)NC(=O)CNC(=O)[C@H](Cc1nn[nH]n1)NC(=O)C(C)(C)C(=O)NCCc1c[nH]cn1)[C@@H](C)O)C(=O)N[C@@H](C)C(=O)N[C@@H](C)C(=O)N[C@@H](CCCCN)C(=O)N[C@@H](CC(=O)O)C(=O)N[C@@H](Cc1ccccc1)C(=O)N[C@H](C(=O)N[C@@H](CC(N)=O)C(=O)N[C@@H](Cc1c[nH]c2ccccc12)C(=O)N[C@@H](CC(C)C)C(=O)N[C@H](C(=O)N[C@@H](CCC(N)=O)C(=O)N[C@H](C(=O)N[C@@H](CCCCN)C(=O)N[C@H](C(=O)N[C@H](C(=O)N[C@@H](CC(=O)O)C(N)=O)[C@@H](C)O)[C@@H](C)CC)[C@@H](C)O)[C@@H](C)CC)[C@@H](C)CC` [Example 17] ({Malonyl(2,2-Me2,histaminyl)}-[Ala(1H-tetrazol-5-yl)]GSFSDE[Nle][dF]T[Aib]LDLK(Alloc)AAKDFINWLIQTKITD-NH2), for which the Emax in assay [1] was 93.7%; in assay [2] it was 94.9%; in assay [3], 101%; in assay [4], 100%. Besides, the EC50 in assay [1] is 0.794 nM; in assay [2], 0.631 nM; in assay [3], 0.00501 nM; in assay [4], 0.794 nM.

As for `C=CCOC(=O)NCCCC[C@H](NC(=O)[C@H](CC(C)C)NC(=O)[C@H](CC(=O)O)NC(=O)[C@H](CC(C)C)NC(=O)[C@@H](NC(=O)[C@@H](NC(=O)[C@@H](Cc1ccccc1)NC(=O)[C@H](CCCC)NC(=O)[C@H](CCC(=O)O)NC(=O)[C@H](CC(=O)O)NC(=O)[C@H](CO)NC(=O)[C@H](Cc1ccccc1)NC(=O)[C@H](CO)NC(=O)CNC(=O)[C@H](Cc1nn[nH]n1)NC(=O)C(C)(C)C(=O)NCCc1c[nH]cn1)[C@@H](C)O)[C@@H](C)CC)C(=O)N[C@@H](C)C(=O)N[C@@H](C)C(=O)N[C@@H](CCCCN)C(=O)N[C@@H](CC(=O)O)C(=O)N[C@@H](Cc1ccccc1)C(=O)N[C@H](C(=O)N[C@@H](CC(N)=O)C(=O)N[C@@H](Cc1c[nH]c2ccccc12)C(=O)N[C@@H](CC(C)C)C(=O)N[C@H](C(=O)N[C@@H](CCC(N)=O)C(=O)N[C@H](C(=O)N[C@@H](CCCCN)C(=O)N[C@H](C(=O)N[C@H](C(=O)NC(C)(CC(=O)O)C(N)=O)[C@@H](C)O)[C@@H](C)CC)[C@@H](C)O)[C@@H](C)CC)[C@@H](C)CC` (some centres unmarked) [Example 20] ({Malonyl(2,2-Me2,histaminyl)}-[Ala(1H-tetrazol-5-yl)]GSFSDE[Nle][dF]TILDLK(Alloc)AAKDFINWLIQTKIT[ξαMeD]-NH2; C-terminus assumed), the maximal effect (Emax) amounted to 94% in assay [1], 92.2% in assay [2], 103% in assay [3] and 100% in assay [4].

Consider `CCCC[C@H](NC(=O)[C@H](CCC(=O)O)NC(=O)[C@H](CC(=O)O)NC(=O)[C@H](CO)NC(=O)[C@H](Cc1ccccc1)NC(=O)[C@H](CO)NC(=O)CNC(=O)[C@H](CC(=O)O)NC(=O)CNC(=O)[C@@H](N)Cc1cnc[nH]1)C(=O)N[C@H](Cc1ccccc1)C(=O)N[C@H](C(=O)N[C@H](C(=O)N[C@@H](CC(C)C)C(=O)N[C@@H](CC(=O)O)C(=O)N[C@@H](CC(C)C)C(=O)N[C@@H](CC(C)C)C(=O)N[C@@H](C)C(=O)N[C@@H](C)C(=O)N[C@@H](CCCNC(=N)N)C(=O)N[C@@H](CC(=O)O)C(=O)N[C@@H](Cc1ccccc1)C(=O)N[C@H](C(=O)N[C@@H](CC(N)=O)C(=O)N[C@@H](Cc1c[nH]c2ccccc12)C(=O)N[C@@H](CC(C)C)C(=O)N[C@H](C(=O)N[C@@H](CCC(N)=O)C(=O)N[C@H](C(=O)N[C@@H](CCCCN)C(=O)N[C@H](C(=O)N[C@H](C(=O)N[C@@H](CC(=O)O)C(N)=O)[C@@H](C)O)[C@@H](C)CC)[C@@H](C)O)[C@@H](C)CC)[C@@H](C)CC)[C@@H](C)CC)[C@@H](C)O` [FE-203799, reference compound] (H-HGDGSFSDE[Nle][dF]TILDLLAARDFINWLIQTKITD-NH2), for which the Emax in assay [1] worked out at 61.4%; in assay [2], 53.4%; in assay [3], 101%; in assay [4] it was 98.1%. In addition, the EC50 in assay [1] is 158 nM; in assay [2], greater than 50.1 nM; in assay [3], 0.0158 nM; in assay [4], 0.0316 nM.

Regarding `CC[C@H](C)[C@H](NC(=O)[C@H](Cc1ccccc1)NC(=O)[C@H](CC(=O)O)NC(=O)[C@H](CCCNC(=N)N)NC(=O)[C@H](C)NC(=O)[C@H](C)NC(=O)[C@H](CC(C)C)NC(=O)[C@H](CC(N)=O)NC(=O)[C@H](CC(=O)O)NC(=O)[C@H](CC(C)C)NC(=O)[C@@H](NC(=O)[C@@H](NC(=O)[C@H](CC(N)=O)NC(=O)[C@H](CCSC)NC(=O)[C@H](CCC(=O)O)NC(=O)[C@H](CC(=O)O)NC(=O)[C@H](CO)NC(=O)[C@H](Cc1ccccc1)NC(=O)[C@H](CO)NC(=O)CNC(=O)[C@H](CC(=O)O)NC(=O)CNC(=O)[C@@H](N)Cc1c[nH]cn1)[C@@H](C)O)[C@@H](C)CC)C(=O)N[C@@H](CC(N)=O)C(=O)N[C@@H](Cc1c[nH]c2ccccc12)C(=O)N[C@@H](CC(C)C)C(=O)N[C@H](C(=O)N[C@@H](CCC(N)=O)C(=O)N[C@H](C(=O)N[C@@H](CCCCN)C(=O)N[C@H](C(=O)N[C@H](C(=O)N[C@@H](CC(=O)O)C(=O)O)[C@@H](C)O)[C@@H](C)CC)[C@@H](C)O)[C@@H](C)CC` [Teduglutide, reference compound], in assay [5], the “wet weight of the small intestine” value was “Significant enhancement of intestinal wet weight”. For the same molecule, the maximal effect (Emax) in assay [1] was found to be 60.3%; in assay [2], 1%; in assay [3] it was 101%; in assay [4] it was 100%. The values for the EC50 in assay [1], in assay [2] and in assay [4] were 316 nM, greater than 794 nM and 0.00794 nM, respectively. In addition, the “enhancement of small bowel wet weight (over vehicle) as a function of dose” value in assay [6] is reported as “dose dependent enhancements in the wet weight of the small intestine”.

The values are drawn from US20230295260A1, “GLP RECEPTOR AGONISTS” (HEPTARES THERAPEUTICS LIMITED, priority 2020, published 2023).
